Data set [1] concerns the target Kappa-type opioid receptor (Homo sapiens) (UniProt P41145). As to the kind of experiment: KAPPA(KOP)_HU Eurofins SafetyScreen44 (BI). Particulars: Compound concentration 10.0 uM; call rule not given here.
For data set [2], the target named is Angiotensin-converting enzyme (Homo sapiens) (UniProt P12821). The data set can be described thus: ACE(HU_AMTCH400) Eurofins SafetyScreen44 (BI). Particulars: Compound concentration 10.0 uM.
Data set [3] has as its target T1, Alpha-1A adrenergic receptor (Homo sapiens) (UniProt P35348).
T1 sequence (whole entry): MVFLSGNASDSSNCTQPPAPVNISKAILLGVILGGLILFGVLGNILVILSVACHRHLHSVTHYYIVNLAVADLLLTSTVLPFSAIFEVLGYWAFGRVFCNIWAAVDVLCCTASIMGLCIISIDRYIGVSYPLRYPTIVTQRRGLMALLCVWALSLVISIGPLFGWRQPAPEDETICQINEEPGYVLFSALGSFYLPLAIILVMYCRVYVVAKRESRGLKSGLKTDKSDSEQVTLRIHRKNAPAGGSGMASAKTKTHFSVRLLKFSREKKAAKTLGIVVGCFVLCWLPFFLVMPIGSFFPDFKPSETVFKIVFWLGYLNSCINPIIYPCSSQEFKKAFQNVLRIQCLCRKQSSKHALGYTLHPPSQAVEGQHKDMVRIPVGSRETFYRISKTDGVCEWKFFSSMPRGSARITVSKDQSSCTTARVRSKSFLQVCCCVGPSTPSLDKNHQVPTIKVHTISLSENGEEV
As to the kind of experiment: ALPHA1AH_ANTAG Eurofins SafetyScreen44 (BI). The note with it: filed as antagonist, Compound concentration 10.0 uM.

Data set [4] addresses GABA-A receptor; anion channel (Rattus norvegicus) (UniProt O09028+P15431+P18506+P18508+P19969+P20236+P23574+P23576+P28471+P28473+P30191+P62813+P63079+P63138+Q91ZM7+Q9ES14). As to the kind of experiment: BZD/CENTR/R Eurofins SafetyScreen44 (BI). In kind it is protein-complex assay. The note with it: Compound concentration 10.0 uM.
The target in data set [5] is L-type Ca2+ channel (dihydropyridine site), Cav1.2 alpha-1C (Rattus norvegicus, UniProt P22002). The data set can be described thus: CA+/DHPSI/R Eurofins SafetyScreen44 (BI). Particulars: rat brain, probe [3H](+)PN200-110, compound concentration 10 uM, read-out: % Ctrl.
In data set [6] the target is Cholecystokinin receptor type A (Homo sapiens) (UniProt P32238). As to the kind of experiment: CCKA/H Eurofins SafetyScreen44 (BI). The note with it: Compound concentration 10.0 uM.
Chain of Cholecystokinin receptor type A (Homo sapiens) (P32238 whole entry): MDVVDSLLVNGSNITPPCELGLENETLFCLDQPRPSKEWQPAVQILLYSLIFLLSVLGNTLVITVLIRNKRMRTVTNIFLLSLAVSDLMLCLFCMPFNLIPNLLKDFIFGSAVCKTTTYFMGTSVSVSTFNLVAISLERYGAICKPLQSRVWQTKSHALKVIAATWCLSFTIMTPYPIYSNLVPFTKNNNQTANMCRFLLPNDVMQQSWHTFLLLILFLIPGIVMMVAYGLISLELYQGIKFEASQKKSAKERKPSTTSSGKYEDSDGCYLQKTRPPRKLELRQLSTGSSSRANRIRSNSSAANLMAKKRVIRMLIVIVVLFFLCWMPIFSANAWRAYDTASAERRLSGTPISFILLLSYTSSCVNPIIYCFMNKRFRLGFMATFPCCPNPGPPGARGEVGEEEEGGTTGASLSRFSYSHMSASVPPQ
The target in data set [7] is Endothelin-1 receptor (Homo sapiens) (UniProt P25101). As to the kind of experiment: ETA/H Eurofins SafetyScreen44 (BI). Particulars: Compound concentration 10.0 uM.
Data set [8] concerns the target Histamine H2 receptor (Homo sapiens) (UniProt P25021). The data set can be described thus: H2/APT/HS Eurofins SafetyScreen44 (BI). The note with it: filed as antagonist, Compound concentration 10.0 uM.
Data set [9] has as its target voltage-dependent K+ channel (stored as IKs; KCNQ1/KCNE1) (Rattus norvegicus, UniProt P15383+Q9Z0N7). As to the kind of experiment: K+/VOLT/RA Eurofins SafetyScreen44 (BI). Particulars: rat brain, probe [125I]alpha-dendrotoxin, compound concentration 10 uM, read-out: % Ctrl. In kind it is protein-complex assay.
For data set [10], the target named is T2, Muscarinic acetylcholine receptor M1 (Homo sapiens) (UniProt P11229).
T2 sequence (whole entry): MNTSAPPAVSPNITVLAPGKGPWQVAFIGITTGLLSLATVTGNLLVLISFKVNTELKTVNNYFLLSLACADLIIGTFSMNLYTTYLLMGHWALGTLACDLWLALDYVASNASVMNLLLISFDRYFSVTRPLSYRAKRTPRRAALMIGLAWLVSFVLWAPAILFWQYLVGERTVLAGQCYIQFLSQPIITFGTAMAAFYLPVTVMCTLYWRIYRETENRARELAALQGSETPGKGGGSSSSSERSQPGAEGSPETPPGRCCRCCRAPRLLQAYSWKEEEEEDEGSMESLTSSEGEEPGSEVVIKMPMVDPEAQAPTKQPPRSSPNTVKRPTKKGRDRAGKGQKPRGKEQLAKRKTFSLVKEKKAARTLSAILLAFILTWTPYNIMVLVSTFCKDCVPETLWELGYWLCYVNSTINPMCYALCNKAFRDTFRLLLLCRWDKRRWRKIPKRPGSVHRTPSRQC
As to the kind of experiment: M1/H Eurofins SafetyScreen44 (BI). The note with it: Compound concentration 10.0 uM.

For data set [11], the target named is voltage-gated Na+ channel (site 2) (Rattus norvegicus, UniProt F1LQQ7+O08562+O88420+O88457+P04774+P04775+P08104+P15389+P15390+Q62968). As to the kind of experiment: NA+/SITE2/R Eurofins SafetyScreen44 (BI). In kind it is protein assay. Particulars: rat brain, probe [3H]batrachotoxinin, compound concentration 10 uM, read-out: % Ctrl.
Data set [12] has as its target Neuronal acetylcholine receptor; alpha4/beta2 (Homo sapiens) (UniProt P17787+P43681). As to the kind of experiment: N_NEURO_A4B2 Eurofins SafetyScreen44 (BI). In kind it is protein-complex assay. The note with it: filed as agonist, Compound concentration 10.0 uM.
Data set [13] has as its target 3',5'-cyclic-AMP phosphodiesterase 4D (Homo sapiens) (UniProt Q08499). As to the kind of experiment: PDE4D2 Eurofins SafetyScreen44 (BI). The note with it: Compound concentration 10.0 uM.
For data set [14], the target named is 5-hydroxytryptamine receptor 1D (Homo sapiens) (UniProt P28221). Particulars: Compound concentration 10.0 uM.
Chain of 5-hydroxytryptamine receptor 1D (Homo sapiens) (P28221 whole entry): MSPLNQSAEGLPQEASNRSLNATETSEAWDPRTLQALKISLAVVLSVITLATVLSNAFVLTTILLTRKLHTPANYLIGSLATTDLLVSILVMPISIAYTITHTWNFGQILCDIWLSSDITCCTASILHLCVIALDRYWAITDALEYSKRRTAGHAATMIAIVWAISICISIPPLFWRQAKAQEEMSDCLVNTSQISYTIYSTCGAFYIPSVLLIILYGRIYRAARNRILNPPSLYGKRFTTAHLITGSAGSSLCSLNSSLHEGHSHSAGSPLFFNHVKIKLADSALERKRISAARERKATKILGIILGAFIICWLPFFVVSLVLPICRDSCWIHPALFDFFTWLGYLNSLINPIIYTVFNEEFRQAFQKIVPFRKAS
Data set [15] has as its target 5-hydroxytryptamine receptor 2A (Homo sapiens) (UniProt P28223). Particulars: Compound concentration 10.0 uM.
Data set [16] addresses T3, 5-hydroxytryptamine receptor 3A (Homo sapiens) (UniProt P46098).
T3 sequence (whole entry): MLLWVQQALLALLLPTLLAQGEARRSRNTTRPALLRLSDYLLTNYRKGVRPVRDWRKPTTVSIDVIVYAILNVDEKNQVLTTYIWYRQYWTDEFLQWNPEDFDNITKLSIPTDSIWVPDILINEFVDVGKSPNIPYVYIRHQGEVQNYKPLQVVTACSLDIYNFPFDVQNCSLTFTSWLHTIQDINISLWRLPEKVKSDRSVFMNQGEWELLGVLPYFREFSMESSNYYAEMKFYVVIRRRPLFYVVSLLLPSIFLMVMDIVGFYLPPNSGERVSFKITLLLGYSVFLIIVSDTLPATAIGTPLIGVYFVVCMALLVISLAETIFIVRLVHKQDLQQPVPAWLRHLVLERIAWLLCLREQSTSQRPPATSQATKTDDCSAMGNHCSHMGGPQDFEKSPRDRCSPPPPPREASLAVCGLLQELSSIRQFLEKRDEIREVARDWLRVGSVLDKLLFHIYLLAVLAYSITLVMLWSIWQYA
The note with it: Compound concentration 10.0 uM.

Data set [17] addresses 5-hydroxytryptamine receptor 5A (Homo sapiens) (UniProt P47898). The note with it: Compound concentration 10.0 uM.
The target in data set [18] is 5-hydroxytryptamine receptor 7 (Homo sapiens) (UniProt P34969). The note with it: Compound concentration 10.0 uM.
Chain of 5-hydroxytryptamine receptor 7 (Homo sapiens) (P34969 whole entry): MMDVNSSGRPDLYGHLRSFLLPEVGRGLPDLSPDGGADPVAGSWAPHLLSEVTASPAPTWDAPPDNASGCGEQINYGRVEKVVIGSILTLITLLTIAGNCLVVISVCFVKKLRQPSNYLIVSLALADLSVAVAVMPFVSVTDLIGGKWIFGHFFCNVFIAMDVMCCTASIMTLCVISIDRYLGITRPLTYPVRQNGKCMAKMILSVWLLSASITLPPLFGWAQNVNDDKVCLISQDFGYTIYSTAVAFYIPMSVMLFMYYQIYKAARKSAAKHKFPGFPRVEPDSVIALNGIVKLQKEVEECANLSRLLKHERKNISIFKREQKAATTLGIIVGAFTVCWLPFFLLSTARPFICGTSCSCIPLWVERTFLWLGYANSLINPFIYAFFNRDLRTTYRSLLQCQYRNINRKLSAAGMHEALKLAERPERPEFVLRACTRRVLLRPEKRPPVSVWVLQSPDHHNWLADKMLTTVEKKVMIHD
Data set [19] deals with Muscarinic acetylcholine receptor M4 (Homo sapiens) (UniProt P08173). Particulars: Compound concentration 10.0 uM.
Chain of Muscarinic acetylcholine receptor M4 (Homo sapiens) (P08173 whole entry): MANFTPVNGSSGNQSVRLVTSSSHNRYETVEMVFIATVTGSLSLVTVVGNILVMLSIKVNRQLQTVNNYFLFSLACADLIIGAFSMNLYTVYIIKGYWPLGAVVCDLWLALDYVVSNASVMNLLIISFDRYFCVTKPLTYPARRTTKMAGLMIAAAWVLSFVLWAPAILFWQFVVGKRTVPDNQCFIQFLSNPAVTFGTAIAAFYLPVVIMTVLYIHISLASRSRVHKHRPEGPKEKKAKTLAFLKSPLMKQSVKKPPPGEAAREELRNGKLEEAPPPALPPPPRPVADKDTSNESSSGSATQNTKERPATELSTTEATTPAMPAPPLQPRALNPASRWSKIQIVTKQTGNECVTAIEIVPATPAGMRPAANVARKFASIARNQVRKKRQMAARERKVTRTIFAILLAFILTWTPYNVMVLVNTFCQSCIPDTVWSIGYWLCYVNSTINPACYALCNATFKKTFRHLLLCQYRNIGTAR
Data set [20] addresses Alpha-1D adrenergic receptor (Homo sapiens) (UniProt P25100). The note with it: Compound concentration 10.0 uM.
Data set [21] deals with Sigma non-opioid intracellular receptor 1 (Homo sapiens) (UniProt Q99720). The note with it: Compound concentration 10.0 uM.
Chain of Sigma non-opioid intracellular receptor 1 (Homo sapiens) (Q99720 whole entry): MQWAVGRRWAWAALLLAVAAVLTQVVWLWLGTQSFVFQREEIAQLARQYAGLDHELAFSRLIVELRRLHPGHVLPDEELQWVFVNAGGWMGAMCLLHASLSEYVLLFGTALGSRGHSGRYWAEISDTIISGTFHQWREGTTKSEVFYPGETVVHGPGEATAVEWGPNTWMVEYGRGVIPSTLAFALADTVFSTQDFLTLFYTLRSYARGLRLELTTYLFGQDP

Structures are written as SMILES.

Chain of 5-hydroxytryptamine receptor 2A (Homo sapiens) (P28223 whole entry): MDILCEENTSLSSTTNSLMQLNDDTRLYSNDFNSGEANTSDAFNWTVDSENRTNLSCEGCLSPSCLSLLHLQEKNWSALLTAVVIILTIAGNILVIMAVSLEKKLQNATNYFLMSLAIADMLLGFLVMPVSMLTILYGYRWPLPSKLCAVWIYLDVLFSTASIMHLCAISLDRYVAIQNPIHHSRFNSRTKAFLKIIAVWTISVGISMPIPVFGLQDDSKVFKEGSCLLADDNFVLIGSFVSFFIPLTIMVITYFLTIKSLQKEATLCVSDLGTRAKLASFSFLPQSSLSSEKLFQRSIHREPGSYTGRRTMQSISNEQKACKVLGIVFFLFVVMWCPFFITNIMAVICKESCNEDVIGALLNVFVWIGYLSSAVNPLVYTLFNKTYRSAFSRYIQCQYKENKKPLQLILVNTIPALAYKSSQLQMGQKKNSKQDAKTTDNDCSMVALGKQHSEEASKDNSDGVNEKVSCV
Chain of 5-hydroxytryptamine receptor 5A (Homo sapiens) (P47898 whole entry): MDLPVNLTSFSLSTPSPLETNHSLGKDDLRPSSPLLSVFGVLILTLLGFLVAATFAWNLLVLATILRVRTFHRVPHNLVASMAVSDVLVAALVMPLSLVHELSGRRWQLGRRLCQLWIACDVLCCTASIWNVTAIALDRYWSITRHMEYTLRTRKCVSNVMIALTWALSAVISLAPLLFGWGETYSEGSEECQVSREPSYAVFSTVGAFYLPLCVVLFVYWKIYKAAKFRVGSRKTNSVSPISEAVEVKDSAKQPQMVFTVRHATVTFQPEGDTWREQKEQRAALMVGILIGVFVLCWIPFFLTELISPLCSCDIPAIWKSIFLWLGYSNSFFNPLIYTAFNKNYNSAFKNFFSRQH
Chain of Alpha-1D adrenergic receptor (Homo sapiens) (P25100 whole entry): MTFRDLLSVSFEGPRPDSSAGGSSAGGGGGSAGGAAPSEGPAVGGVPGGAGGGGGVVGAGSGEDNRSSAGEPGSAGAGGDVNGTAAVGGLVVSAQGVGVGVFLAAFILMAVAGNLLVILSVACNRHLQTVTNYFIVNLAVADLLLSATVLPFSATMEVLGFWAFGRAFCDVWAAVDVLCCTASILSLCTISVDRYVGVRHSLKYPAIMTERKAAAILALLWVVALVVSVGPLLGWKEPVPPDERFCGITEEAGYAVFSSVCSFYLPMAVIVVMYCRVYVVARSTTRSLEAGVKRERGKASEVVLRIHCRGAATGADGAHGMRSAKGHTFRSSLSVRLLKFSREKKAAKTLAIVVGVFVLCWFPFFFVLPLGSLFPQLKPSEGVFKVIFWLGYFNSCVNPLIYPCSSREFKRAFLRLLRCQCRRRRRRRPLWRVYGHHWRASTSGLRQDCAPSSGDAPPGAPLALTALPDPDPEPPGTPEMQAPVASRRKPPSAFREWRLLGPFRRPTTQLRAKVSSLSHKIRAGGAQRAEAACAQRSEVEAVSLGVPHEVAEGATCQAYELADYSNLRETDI
Chain of Angiotensin-converting enzyme (Homo sapiens) (P12821 whole entry): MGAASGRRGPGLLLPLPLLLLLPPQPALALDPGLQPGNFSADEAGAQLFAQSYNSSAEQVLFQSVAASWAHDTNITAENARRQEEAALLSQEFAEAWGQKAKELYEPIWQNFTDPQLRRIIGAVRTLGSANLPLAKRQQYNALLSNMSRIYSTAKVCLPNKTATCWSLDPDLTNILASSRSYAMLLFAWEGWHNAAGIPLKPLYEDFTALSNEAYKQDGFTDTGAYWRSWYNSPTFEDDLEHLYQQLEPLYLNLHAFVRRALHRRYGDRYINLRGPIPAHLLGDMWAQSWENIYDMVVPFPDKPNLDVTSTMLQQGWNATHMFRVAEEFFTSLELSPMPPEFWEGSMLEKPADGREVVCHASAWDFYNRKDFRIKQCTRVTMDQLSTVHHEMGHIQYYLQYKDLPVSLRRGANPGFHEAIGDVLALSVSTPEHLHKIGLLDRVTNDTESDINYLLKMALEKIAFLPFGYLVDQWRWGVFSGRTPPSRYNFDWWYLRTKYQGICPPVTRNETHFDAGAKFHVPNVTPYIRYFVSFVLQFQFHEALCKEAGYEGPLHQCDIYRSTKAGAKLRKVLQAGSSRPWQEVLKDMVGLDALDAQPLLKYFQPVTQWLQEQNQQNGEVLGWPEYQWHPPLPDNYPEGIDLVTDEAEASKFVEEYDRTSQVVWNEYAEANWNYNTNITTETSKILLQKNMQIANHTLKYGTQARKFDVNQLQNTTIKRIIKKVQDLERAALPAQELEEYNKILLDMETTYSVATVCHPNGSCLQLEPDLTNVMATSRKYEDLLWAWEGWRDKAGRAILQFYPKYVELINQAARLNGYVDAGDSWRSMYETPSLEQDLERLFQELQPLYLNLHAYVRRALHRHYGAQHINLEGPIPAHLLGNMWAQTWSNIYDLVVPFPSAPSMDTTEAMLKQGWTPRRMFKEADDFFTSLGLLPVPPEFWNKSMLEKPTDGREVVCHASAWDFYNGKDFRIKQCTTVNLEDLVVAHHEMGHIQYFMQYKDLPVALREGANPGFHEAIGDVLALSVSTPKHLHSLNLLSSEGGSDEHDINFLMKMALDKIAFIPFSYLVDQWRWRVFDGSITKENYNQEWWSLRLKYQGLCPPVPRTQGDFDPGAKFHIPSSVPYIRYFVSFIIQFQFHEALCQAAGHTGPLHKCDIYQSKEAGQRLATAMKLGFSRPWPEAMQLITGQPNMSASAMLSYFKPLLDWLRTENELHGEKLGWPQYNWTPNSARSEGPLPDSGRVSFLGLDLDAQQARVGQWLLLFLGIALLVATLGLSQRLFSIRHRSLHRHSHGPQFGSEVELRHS

As usually defined, the inhibition is the drop in the measured response relative to a control, in per cent. Take `CCn1c(=O)c(C)cn(Cc2nnc(-c3ccc(F)c(O)c3F)s2)c1=O`: the residual activity in data set [1] was 94%; in data set [2], 99%; in data set [3] it was 107%; in data set [4], 115%; in data set [6] it was 78%; in data set [7], 97%. In addition, the residual activity is 105% in data set [8], 99% in [10], 109% in data set [12] and 68% in data set [13]. Moreover, the activity at 10 µM in data set [5] is listed as 84% (not active); in data set [9], 103% (not active); in data set [11] it was 73% (not active). In addition, the inhibition is 6.08% in data set [14]; 0.32% in data set [15]; 10.6% in data set [16]; 4.72% in data set [17]; 5.8% in [18]; -2.34% in [19]. Also, the inhibition was -1.34% in [20] and 17.2% in data set [21].
Take `CCn1c(=O)c(C)cn(Cc2nnc(-c3ccc(F)c(OC)c3F)s2)c1=O`: the residual activity in [1] was 110%; in data set [2], 117%; in data set [3], 88%; in data set [4], 94%; in data set [6], 99%; in [7] it was 104%. Moreover, the residual activity in data set [8] was 107%; in data set [10] it was 100%; in data set [12], 107%; in data set [13], 64%. In addition, the activity at 10 µM in data set [5] is on record as 93% (not active); in [9] it was 104% (not active); in [11], 88% (not active). Further, the inhibition in data set [14] is 15.8%; in data set [15], 3.82%; in data set [16], 7.41%; in data set [17], 8.13%; in data set [18], -1.29%; in data set [19], 0.65%. Besides, the inhibition is 5.29% in data set [20] and 16.4% in data set [21].

The record behind these values is ChEMBL document CHEMBL5303761, “Data for DCP probe BI-3231” (2023).
